Measurements reported in patent US20070122903A1, “AMNIOTIC FLUID DERIVED CELLS” (priority 2005, published 2007).

How the values were obtained:
Type in all cases: cell-based, human
[1] = system: cell line AFCA004 (E morphology); test: Treatment with PANC-1 conditioned medium in combination with growth factors, real-time PCR; conditions: PANC-1 conditioned medium plus growth factor; for somatostatin expression: after 14 days treatment
Experimental: Amniotic fluid-derived cells were obtained from a single donor and cultured for 12 days in conditioned media that was obtained from cultures of PANC-1 cells. The media was supplemented with the growth factors indicated. The levels of expression of HNF-3 beta and somatostatin were determined by real-time PCR. Human pancreas total RNA was included as a calibrator.
Cells from the cell line AFCA004 (E morphology) at passage 6 were seeded at 5×10^5 cells per well of 6-well culture plates and treated with conditioned medium from confluent PANC-1 cells (ATCC, VA) in combination with different growth factors. Basic FGF, EGF and combination of bFGF and EGF enhanced the expression of HNF-3 beta ˜100 fold over untreated cells. Basic FGF, EGF and BMPs also stimulated somatostatin expression after 14 days treatment (FIG. 16, panels a&b).

[2] = system: Hes-1 expression (Notch pathway) in cell line AFCA007 (AF-I); test: Hes-1 expression by real-time PCR after notch pathway inhibition; conditions: range of concentrations, 3 to 5 days
Experimental: (§1) Cells were treated for three days, at the concentrations indicated. Changes in viability, corresponding to cytotoxicity were detected using an MTS assay, where a decrease in cell viability corresponds to a decrease in A490 nm.
(§2) Cells from the cell line AFCA007 (AF-I) at passage 8 were treated with a range of concentrations of the notch pathway inhibitor L-685,458 (Sigma, MO) for 3 to 5 days. The cytotoxcity of L-685,458 was determined by measuring cell viability by a MTS assay (Promega, WI). Real-time PCR analysis was performed to analyze Hes-1 expression after the treatment. […] No effect on cell viability, as determined by the MTS assay, was observed following L-685,458 treatment of up to 10 μM for 5 days (FIG. 17, panel b).

[3] = system: cell line AFCA007 Clone A (AF-I); test: Differentiation of cells into multiple endocrine lineages (collagen type I/matrigel transwell culture with growth factors); conditions: 14 days, DMEM + 5% FBS
Experimental: Cells from the cell line AFCA007 Clone A (AF-I) at passage 8 were embedded in collagen type I (Becton Dickinson, CA) with 1% growth-factor reduced matrigel matrix (Becton Dickinson), and seeded into 6-well transwell insert at 5×10^5 cells per well. The bottom well was seeded with human aortic endothelial cells passage 6 (Cambrex. MD). Cells were cultured with DMEM medium supplemented with 5% FBS and growth factors, which includes Cyclopamine, bFGF, EGF, BMP4-7, Activin A, Exendin 4, FGF4, all-trans retinoic acid and γ-secretase inhibitors for 14 days. Cultures were fed every other day. […] Treatment of cells with BMPs at high concentration, 50 ng/ml, also up-regualted the GATA4 expression.

cell line AFCA007 (AF-I) = test: Cytotoxicity by MTS cell viability assay; conditions: up to 10 μM for 5 days
Experimental: as §1, §2

Row | Molecule | expression of HNF-3 beta over untreated cells [1] | somatostatin expression [1] | further results
1 | EGF: epidermal growth factor combined with PANC-1 conditioned medium (NSDSECPLSHDGYCLHDGVCMYIEALDKYACNCVVGYIGERCQYRDLKWWELR; Epidermal growth factor; UniProt P01133 971-1023, looked up) | ~100 fold | stimulated | 
2 | CC(C)C[C@H](NC(=O)[C@H](Cc1ccccc1)C[C@@H](O)[C@H](Cc1ccccc1)NC(=O)OC(C)(C)C)C(=O)N[C@@H](Cc1ccccc1)C(N)=O [L-685,458] |  |  | Hes-1 expression [2]: dose-dependent inhibitory effect; expression of HNF-3 beta [3]: up-regulated; cell viability (MTS assay) (cell line AFCA007 (AF-I)): No effect
3 | CC1=C(/C=C/C(C)=C/C=C/C(C)=C/C(=O)O)C(C)(C)CCC1 [all-trans retinoic acid, reference compound] |  |  | alpha-fetoprotein (AFP) expression [3]: up-regulation
4 | Basic FGF: growth factor combined with PANC-1 conditioned medium | ~100 fold | stimulated | 
